Data published in ChEMBL document CHEMBL1201862, “PubChem BioAssay data set” (2004).
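Exposure lasted 48 hours, with cells grown in 96-well plates and compounds tested at five concentrations. Here, GI50 denotes the concentration required for 50% inhibition of growth.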 The source made the active and inactive calls. Cut-off read from the data, not from the text of the source: active = GI50 up to about 1.1 µM and inactive = higher.

Columns and labels:
Experiment in all cases: NCI-60 cell line screen, 48 h
786-0 = system: 786-0
A498 = system: A498
A549 = system: A549
ACHN = system: ACHN
CAKI-1 = system: CAKI-1
COLO 205 = system: COLO 205
DLD-1 = system: DLD-1
DMS-114 = system: DMS-114
DMS-273 = system: DMS-273
EKVX = system: EKVX
HCC 2998 = system: HCC 2998
HCT-116 = system: HCT-116
HCT-15 = system: HCT-15
HL-60 = system: HL-60
HOP-18 = system: HOP-18
HOP-62 = system: HOP-62
HOP-92 = system: HOP-92
HT-29 = system: HT-29
IGROV-1 = system: IGROV-1
K562 = system: K562
KM-20L2 = system: KM-20L2
KM12 = system: KM12
LOX IMVI = system: LOX IMVI
LXFL 529 = system: LXFL 529
M14 = system: M14
M19-MEL = system: M19-MEL
MOLT-4 = system: MOLT-4
Malme-3M = system: Malme-3M
NCI-H226 = system: NCI-H226
NCI-H23 = system: NCI-H23
NCI-H460 = system: NCI-H460
NCI-H522 = system: NCI-H522
OVCAR-3 = system: OVCAR-3
OVCAR-4 = system: OVCAR-4
OVCAR-5 = system: OVCAR-5
OVCAR-8 = system: OVCAR-8
RPMI-8226 = system: RPMI-8226
RXF 393 = system: RXF 393
SF-268 = system: SF-268
SF-295 = system: SF-295
SF-539 = system: SF-539
SK-MEL-28 = system: SK-MEL-28
SK-MEL-2 = system: SK-MEL-2
SK-MEL-5 = system: SK-MEL-5
SK-OV-3 = system: SK-OV-3
SN12C = system: SN12C
SNB-19 = system: SNB-19
SNB-75 = system: SNB-75
SNB-78 = system: SNB-78
SW-620 = system: SW-620
TK-10 = system: TK-10
U-251 = system: U-251
UACC-257 = system: UACC-257
UACC-62 = system: UACC-62
UO-31 = system: UO-31
XF498 = system: XF498
RXF 631 = system: RXF 631
SR = system: SR
CCRF-CEM = system: CCRF-CEM

CCCOCN1COCN/C1=N\C#N
GI50 (786-0): 22 µM (inactive)
GI50 (A498): > 100 µM (inactive)
GI50 (A549): 42.3 µM (inactive)
GI50 (ACHN): 52.4 µM (inactive)
GI50 (CAKI-1): > 100 µM (inactive)
GI50 (COLO 205): 17.9 µM (inactive)
GI50 (DLD-1): 70.1 µM (inactive)
GI50 (DMS-114): 22 µM (inactive)
GI50 (DMS-273): 18 µM (inactive)
GI50 (EKVX): > 100 µM (inactive)
GI50 (HCC 2998): > 100 µM (inactive)
GI50 (HCT-116): 84.1 µM (inactive)
GI50 (HCT-15): 17.1 µM
GI50 (HL-60): > 100 µM (inactive)
GI50 (HOP-18): 32.8 µM (inactive)
GI50 (HOP-62): > 100 µM (inactive)
GI50 (HOP-92): > 100 µM (inactive)
GI50 (HT-29): 48.2 µM (inactive)
GI50 (IGROV-1): > 100 µM (inactive)
GI50 (K562): > 100 µM (inactive)
GI50 (KM-20L2): 36.2 µM (inactive)
GI50 (KM12): > 100 µM (inactive)
GI50 (LOX IMVI): 24.5 µM (inactive)
GI50 (LXFL 529): > 100 µM (inactive)
GI50 (M14): > 100 µM (inactive)
GI50 (M19-MEL): 30.9 µM (inactive)
GI50 (MOLT-4): > 100 µM (inactive)
GI50 (Malme-3M): > 100 µM (inactive)
GI50 (NCI-H226): > 100 µM (inactive)
GI50 (NCI-H23): > 100 µM (inactive)
GI50 (NCI-H460): > 100 µM (inactive)
GI50 (NCI-H522): > 100 µM (inactive)
GI50 (OVCAR-3): > 100 µM (inactive)
GI50 (OVCAR-4): 32.1 µM (inactive)
GI50 (OVCAR-5): > 100 µM (inactive)
GI50 (OVCAR-8): > 100 µM (inactive)
GI50 (RPMI-8226): 69.7 µM (inactive)
GI50 (RXF 393): 15.3 µM (inactive)
GI50 (SF-268): 39.1 µM (inactive)
GI50 (SF-295): > 100 µM (inactive)
GI50 (SF-539): > 100 µM (inactive)
GI50 (SK-MEL-28): > 100 µM (inactive)
GI50 (SK-MEL-2): > 100 µM (inactive)
GI50 (SK-MEL-5): > 100 µM (inactive)
GI50 (SK-OV-3): > 100 µM (inactive)
GI50 (SN12C): > 100 µM (inactive)
GI50 (SNB-19): > 100 µM (inactive)
GI50 (SNB-75): > 100 µM (inactive)
GI50 (SNB-78): > 100 µM (inactive)
GI50 (SW-620): 14 µM (inactive)
GI50 (TK-10): > 100 µM (inactive)
GI50 (U-251): 21.6 µM (inactive)
GI50 (UACC-257): > 100 µM (inactive)
GI50 (UACC-62): > 100 µM (inactive)
GI50 (UO-31): > 100 µM (inactive)
GI50 (XF498): > 100 µM (inactive)

c1ccc(COCC2OC3c4ccccc4COC3C2OCc2ccccc2)cc1 (stereo unspecified)
GI50 (786-0): > 100 µM (inactive)
GI50 (A549): > 100 µM (inactive)
GI50 (ACHN): > 100 µM (inactive)
GI50 (CAKI-1): 76.9 µM (inactive)
GI50 (COLO 205): > 100 µM (inactive)
GI50 (DLD-1): > 100 µM (inactive)
GI50 (DMS-114): 49.5 µM (inactive)
GI50 (DMS-273): 83.6 µM (inactive)
GI50 (EKVX): > 100 µM (inactive)
GI50 (HCC 2998): > 100 µM (inactive)
GI50 (HCT-116): 71.3 µM (inactive)
GI50 (HCT-15): 69.5 µM
GI50 (HOP-18): > 100 µM (inactive)
GI50 (HOP-92): 19.4 µM (inactive)
GI50 (HT-29): 99.1 µM (inactive)
GI50 (IGROV-1): > 100 µM (inactive)
GI50 (K562): 57.5 µM (inactive)
GI50 (KM-20L2): > 100 µM (inactive)
GI50 (KM12): > 100 µM (inactive)
GI50 (M14): > 100 µM (inactive)
GI50 (M19-MEL): > 100 µM (inactive)
GI50 (MOLT-4): 48.8 µM (inactive)
GI50 (Malme-3M): > 100 µM (inactive)
GI50 (NCI-H226): > 100 µM (inactive)
GI50 (NCI-H23): 94.8 µM (inactive)
GI50 (NCI-H460): 71.6 µM (inactive)
GI50 (OVCAR-3): > 100 µM (inactive)
GI50 (OVCAR-4): > 100 µM (inactive)
GI50 (OVCAR-5): > 100 µM (inactive)
GI50 (OVCAR-8): > 100 µM (inactive)
GI50 (RPMI-8226): 63 µM (inactive)
GI50 (RXF 393): 32 µM (inactive)
GI50 (RXF 631): > 100 µM (inactive)
GI50 (SF-295): 77.3 µM (inactive)
GI50 (SF-539): > 100 µM (inactive)
GI50 (SK-MEL-28): > 100 µM (inactive)
GI50 (SK-MEL-2): > 100 µM (inactive)
GI50 (SK-MEL-5): 70.6 µM (inactive)
GI50 (SK-OV-3): > 100 µM (inactive)
GI50 (SN12C): > 100 µM (inactive)
GI50 (SNB-19): > 100 µM (inactive)
GI50 (SNB-75): 39.6 µM (inactive)
GI50 (SNB-78): > 100 µM (inactive)
GI50 (SR): 57.8 µM (inactive)
GI50 (SW-620): > 100 µM (inactive)
GI50 (TK-10): > 100 µM (inactive)
GI50 (U-251): > 100 µM (inactive)
GI50 (UACC-257): 61.2 µM (inactive)
GI50 (UACC-62): 52.7 µM (inactive)
GI50 (UO-31): > 100 µM (inactive)

O=C1C(Cl)C(c2ccccc2O)N1n1cnc2ccccc2c1=O (stereo unspecified)
GI50 (786-0): 47.5 µM (inactive)
GI50 (A549): 63.1 µM (inactive)
GI50 (ACHN): 39.4 µM (inactive)
GI50 (CAKI-1): 37.8 µM (inactive)
GI50 (CCRF-CEM): 19.8 µM (inactive)
GI50 (COLO 205): 30.1 µM (inactive)
GI50 (DLD-1): 67 µM (inactive)
GI50 (DMS-114): 20 µM (inactive)
GI50 (DMS-273): 63.4 µM (inactive)
GI50 (EKVX): 23.9 µM (inactive)
GI50 (HCC 2998): > 100 µM (inactive)
GI50 (HCT-116): 64.3 µM (inactive)
GI50 (HCT-15): 2.99 µM
GI50 (HL-60): 13 µM (inactive)
GI50 (HOP-18): 37 µM (inactive)
GI50 (HOP-62): 48.5 µM (inactive)
GI50 (HT-29): 87.3 µM (inactive)
GI50 (IGROV-1): 61.7 µM (inactive)
GI50 (K562): 58.1 µM (inactive)
GI50 (KM-20L2): 78.3 µM (inactive)
GI50 (KM12): > 100 µM (inactive)
GI50 (LOX IMVI): 61 µM (inactive)
GI50 (LXFL 529): 61.1 µM (inactive)
GI50 (M14): 80.2 µM (inactive)
GI50 (M19-MEL): 97.3 µM (inactive)
GI50 (MOLT-4): 27.6 µM (inactive)
GI50 (Malme-3M): 75.3 µM (inactive)
GI50 (NCI-H226): 62.2 µM (inactive)
GI50 (NCI-H23): 49 µM (inactive)
GI50 (NCI-H460): 35.2 µM (inactive)
GI50 (NCI-H522): 23.6 µM (inactive)
GI50 (OVCAR-3): > 100 µM (inactive)
GI50 (OVCAR-4): 23.7 µM (inactive)
GI50 (OVCAR-5): > 100 µM (inactive)
GI50 (OVCAR-8): 92.7 µM (inactive)
GI50 (RPMI-8226): 6.75 µM (inactive)
GI50 (RXF 393): 22.7 µM (inactive)
GI50 (SF-268): 43.4 µM (inactive)
GI50 (SF-295): 53.6 µM (inactive)
GI50 (SK-MEL-28): 70.1 µM (inactive)
GI50 (SK-MEL-2): > 100 µM (inactive)
GI50 (SK-MEL-5): 56.2 µM (inactive)
GI50 (SK-OV-3): 25.1 µM (inactive)
GI50 (SN12C): 7.08 µM (inactive)
GI50 (SNB-19): 63.8 µM (inactive)
GI50 (SNB-75): 20.4 µM (inactive)
GI50 (SNB-78): 26.2 µM (inactive)
GI50 (SR): 27.4 µM (inactive)
GI50 (SW-620): 58.7 µM (inactive)
GI50 (TK-10): > 100 µM (inactive)
GI50 (U-251): 43.3 µM (inactive)
GI50 (UACC-257): 46.7 µM (inactive)
GI50 (UACC-62): 44.3 µM (inactive)
GI50 (UO-31): 50 µM (inactive)
GI50 (XF498): 5.32 µM (inactive)
